According to patent publication US11053243B2 (Merck Sharp & Dohme Corp., priority 2009, dated 2021):

These compounds were tested on HCV genotype 1b replicon (assay: HCV replicon assay, genotype 1b). Conditions: Hepatitis C virus; genotype 1b replicon cells, 24 to 72 hours incubation, luciferase activity.
Type: cell-based, hepatitis C virus
Description: The HCV replicons and NS5A inhibitory activity of the present compounds may be tested using assays known in the art. HCV inhibitors, such as those described in the Examples herein have activities in genotype 1b, 2a and 1a replicon assays of from about 1 pM to about 1 μM. The assay is performed by incubating a replicon harboring cell-line in the presence of inhibitor for a set period of time and measuring the effect of the inhibitor on HCV replicon replication either directly by quantifying replicon RNA level, or indirectly by measuring enzymatic activity of a co-encoded reporter enzyme such as luciferase or β-lactamase. By performing a series of such measurements at different inhibitor concentrations, the effective inhibitory concentration of the inhibitor (EC50 or EC90) is determined. See Jan M. Vrolijk et al., A replicons-based bioassay for the measurement of interferons in patients with chronic hepatitis C, 110 J. VIROLOGICAL METHODS 201 (2003). Such assays may also be run in an automated format for high through-put screening. See Paul Zuck et al., A cell-based β-lactamase reporter gene assay for the identification of inhibitors of hepatitis C virus replication, 334 ANALYTICAL BIOCHEMISTRY 344 (2004).
Measurement of inhibition by compounds was performed using the HCV replicon system. Several different replicons encoding different HCV genotypes or mutations were used. In addition, potency measurements were made using different formats of the replicon assay, including different ways of measurements and different plating formats. See Jan M. Vrolijk et al., A replicons-based bioassay for the measurement of interferons in patients with chronic hepatitis C, 110 J. VIROLOGICAL METHODS 201 (2003); Steven S. Carroll et al., Inhibition of Hepatitis C Virus RNA Replication by 2′-Modified Nucleoside Analogs, 278(14) J. BIOLOGICAL CHEMISTRY 11979 (2003). However, the underlying principles are common to all of these determinations, and are outlined below.
Stable neomycin phosphotransferase encoding replicon-harboring cell lines were used, so all cell lines were maintained under G418 selection prior to the assay. In some cases, the cell lines encoded a luciferase:Neor fusion and could be assayed either directly by determination of RNA copy number, or indirectly through measurement of the luciferase activity.
To initiate an assay, replicon cells were plated in the presence of a dilution series of test compound in the absence of G418. Typically, the assays were performed in a 96-well plate format for manual operation, or a 384-well plate in an automated assay. Replicon cells and compound were incubated for 24 to 72 hours. At the end of the assay, cells are washed free of media and compound and then lysed. Luciferase activity was measured using a conventional luciferase assay. EC50 determinations were calculated as a percent of a DMSO control by fitting the data to a four parameter fit function.
The activity table below provides representative data illustrating observed activity against genotype 1b.
With `O=C(Nc1ccc(-c2cc3nc(NC(=O)[C@@H]4CCCN4C(=O)Cc4ccccc4)ccc3[nH]2)cc1)[C@@H]1CCCN1C(=O)Cc1ccccc1` [Example 2, (2S)-1-(phenylacetyl)-N-{2-[4-({[(2S)-1-(phenylacetyl)pyrrolidin-2-yl]carbonyl}amino)phenyl]-1H-pyrrolo[3,2-b]pyridin-5-yl}pyrrolidine-2-carboxamide] the EC50 was 9 nM.
Work on `O=C(Nc1ccc(-c2[nH]c3ncc(NC(=O)[C@@H]4CCCN4C(=O)Cc4ccccc4)cc3c2Cl)cc1)[C@@H]1CCCN1C(=O)Cc1ccccc1` [Example 6, (2S)—N-{3-chloro-2-[4-({[(2S)-1-(phenylacetyl)pyrrolidin-2-yl]carbonyl}amino)phenyl]-1H-pyrrolo[2,3-b]pyridin-5-yl}-1-(phenylacetyl)pyrrolidine-2-carboxamide] yielded an EC50 of 200 nM.
In the case of `CC(C)(C)OC(=O)N[C@H](C(=O)N1CCC[C@H]1C(=O)Nc1ccc(-c2nc3cc(NC(=O)[C@@H]4CCCN4C(=O)[C@@H](NC(=O)OC(C)(C)C)c4ccccc4)ccc3[nH]2)cc1)c1ccccc1` [Example 14, tert-butyl {(1S)-2-[(2S)-2-({4-[5-({[(2S)-1-{(2S)-2-[(tert-butoxycarbonyl)amino]-2-phenylacetyl}pyrrolidin-2-yl]carbonyl}amino)-1H-benzimidazol-2-yl]phenyl}carbamoyl)pyrrolidin-1-yl]-2-oxo-1-phenylethyl}carbamate], the EC50 is reported as 10 nM.
Compound `CC(C)(C)OC(=O)N[C@@H](C(=O)N1CCC[C@H]1C(=O)Nc1ccc(-c2nc3cc(NC(=O)[C@@H]4CCCN4C(=O)[C@H](NC(=O)OC(C)(C)C)c4ccccc4)ccc3[nH]2)cc1)c1ccccc1` [Example 15, tert-butyl {(1R)-2-[(2S)-2-({4-[5-({[(2S)-1-{(2R)-2-[(tert-butoxycarbonyl)amino]-2-phenylacetyl}pyrrolidin-2-yl]carbonyl}amino)-1H-benzimidazol-2-yl]phenyl}carbamoyl)pyrrolidin-1-yl]-2-oxo-1-phenylethyl}carbamate] has an EC50 of 0.045 nM.
With `CC(=O)Nc1ccc(-c2cc3cc(NC(=O)[C@@H]4CCCN4C(=O)[C@H](NC(=O)OC(C)(C)C)c4ccccc4)ccc3o2)cc1` [Example 19, N-{2-[4-(acetylamino)phenyl]-1-benzofuran-5-yl}-1-{(2R)-2-[(tert-butoxycarbonyl)amino]-2-phenylacetyl}-L-prolinamide] the EC50 was 25 nM.
`CCN(CC)[C@@H](C(=O)N1CCC[C@H]1C(=O)Nc1ccc(-c2cc3cc(NC(=O)[C@@H]4CCCN4C(=O)[C@@H](c4ccccc4)N(CC)CC)ccc3o2)cc1)c1ccccc1` [Example 26, (2S)-1-[(2R)-2-(diethylamino)-2-phenylacetyl]-N-(4-{5-[({(2S)-1-[(2R)-2-(diethylamino)-2-phenylacetyl]pyrrolidin-2-yl}carbonyl)amino]-1-benzofuran-2-yl}phenyl)pyrrolidine-2-carboxamide] gave an EC50 of 0.063 nM.
In the case of `CCN(CC)[C@@H](C(=O)N1CCC[C@H]1C(=O)Nc1ccc2oc(-c3ccc(NC(C)=O)cc3)cc2c1)c1ccccc1` [Example 30], the EC50 is reported as 26 nM.
In the case of `O=C(Nc1ccc2[nH]c(-c3cc4cc(NC(=O)[C@@H]5CCCN5C(=O)Cc5ccccc5)ccc4[nH]3)cc2c1)[C@@H]1CCCN1C(=O)Cc1ccccc1` [Example 39, (2S,2′S)—N,N′,1H,1′H-2,2′-biindole-5,5′-diylbis[1-(phenylacetyl)pyrrolidine-2-carboxamide]], the EC50 is reported as 0.24 nM.
With `CC(C)(C)OC(=O)N[C@@H](C(=O)N1CCCC1C(=O)Nc1ccc2[nH]c(-c3cc4cc(NC(=O)[C@@H]5CCCN5C(=O)[C@H](NC(=O)OC(C)(C)C)c5ccccc5)ccc4[nH]3)cc2c1)c1ccccc1` (stereo partly drawn) [Example 40] the EC50 was 0.026 nM.
In the case of `CC(C)(C)OC(=O)N[C@@H](C(=O)N1CCC[C@H]1C(=O)Nc1ccc2[nH]c(-c3ccc(NC(=O)[C@@H]4CCCN4C(=O)Cc4ccccc4)cc3)cc2c1)c1ccccc1` [Example 41], the EC50 is reported as 0.05 nM.
For `O=C(Nc1cnc(-c2cc3cc(NC(=O)[C@@H]4CCCN4C(=O)Cc4ccccc4)ccc3[nH]2)nc1)[C@@H]1CCCN1C(=O)Cc1ccccc1` [Example 42], the EC50 was 14 nM.
`O=C(Nc1ccc(-c2cc3cc(NC(=O)[C@@H]4CCCN4C(=O)[C@@H](c4ccccc4)N4CCCC4)ccc3[nH]2)cc1)[C@@H]1CCCN1C(=O)[C@@H](c1ccccc1)N1CCCC1` [Example 45, (2S)-1-[(2R)-2-phenyl-2-(pyrrolidin-1-yl)acetyl]-N-(4-{5-[({(2S)-1-[(2R)-2-phenyl-2-(pyrrolidin-1-yl)acetyl]pyrrolidin-2-yl}carbonyl)amino]-1H-indol-2-yl}phenyl) pyrrolidine-2-carboxamide] showed an EC50 of 0.02 nM.
Compound `O=C(Nc1ccc(-c2cc3cc(NC(=O)[C@@H]4CCCN4C(=O)C(Cc4ccccc4)c4ccccc4)ccc3[nH]2)cc1)[C@@H]1CCCN1C(=O)C(Cc1ccccc1)c1ccccc1` (stereo partly drawn) [Example 49] has an EC50 of 0.072 nM.
Compound `CC(=O)Nc1ccc(-c2cc3cc(NC(=O)[C@@H]4CCCN4C(=O)[C@@H](c4ccccc4)N4CCCC4)ccc3[nH]2)cc1` [Example 58, N-{2-[4-(acetylamino)phenyl]-1H-indol-5-yl}-1[(2R)-2-phenyl-2-(pyrrolidin-1-yl)acetyl]-L-prolinamide] has an EC50 of 0.97 nM.
Compound `O=C(Nc1ccc(-c2cc3cc(NC(=O)[C@@H]4CCCN4C(=O)[C@@H](c4ccccc4)N4CCCCC4)ccc3[nH]2)cc1)[C@@H]1CCCN1C(=O)[C@@H](c1ccccc1)N1CCCCC1` [Example 60, (2S)-1-[(2R)-2phenyl-2-(piperidin-1-yl)acetyl]-N-(4-{5-[({(2S)-1-[(2R)-2-phenyl-2-(piperidin-1-yl)acetyl]pyrrolidin-2-yl}carbonyl)amino]-1H-indol-2-yl}phenyl)pyrrolidine-2-carboxamide] has an EC50 of 0.13 nM.
Compound `CCN(CC)[C@@H](C(=O)N1CCC[C@H]1C(=O)Nc1ccc(-c2cc3cc(NC(=O)[C@@H]4CCCN4C(=O)[C@@H](c4ccccc4)N(CC)CC)ccc3[nH]2)cc1)c1ccccc1` [Example 62, (2S)-1-[(2R)-2-(diethylamino)-2-phenylacetyl]-N-(4-{5-[({(2S)-1-[(2R)-2-(diethylamino)-2-phenylacetyl]pyrrolidin-2-yl}carbonyl)amino]-1H-indol-2-yl}phenyl)pyrrolidine-2-carboxamide] has an EC50 of 0.067 nM.
Compound `CN(C)[C@@H](C(=O)N1CCC[C@H]1C(=O)Nc1ccc2c(c1)CCc1c-2[nH]c2ccc(NC(=O)[C@@H]3CCCN3C(=O)[C@@H](c3ccccc3)N(C)C)cc12)c1ccccc1` [Example 94, (2S,2′S)-N,N′-6,11-dihydro-5H-benzo[a]carbazole-3,8-diylbis{1-[(2R)-2-(dimethylamino)-2-phenylacetyl]pyrrolidine-2-carboxamide}] has an EC50 of 0.006 nM.
For `CN(C)[C@@H](C(=O)N1CCC[C@H]1C(=O)Nc1ccc2c(c1)CCCc1c-2[nH]c2ccc(NC(=O)[C@@H]3CCCN3C(=O)[C@@H](c3ccccc3)N(C)C)cc12)c1ccccc1` [Example 95, (2S,2′S)-N,N′-5,6,7,12-tetrahydrobenzo[6,7]cyclohepta[1,2-b]indole-3,9-diylbis{1-[(2R)-2-(dimethylamino)-2-phenylacetyl]pyrrolidine-2-carboxamide}], the EC50 was 0.01 nM.
`CC(C)(C)CC(=O)N[C@H](C(=O)N1CCC[C@H]1C(=O)Nc1ccc2c(c1)CCc1c-2[nH]c2ccccc12)c1ccccc1` [Example 96, N-(6,11-dihydro-5H-benzo[a]carbazol-3-yl)-1-{(2S)-2-[(3,3-dimethylbutanoyl)amino]-2-phenylacetyl}-L-prolinamide] showed an EC50 of 0.015 nM.
With `CC(C)(C)OC(=O)N[C@@H](C(=O)N1CCC[C@H]1C(=O)Nc1ccc2[nH]c(-c3ccc(-c4cnc([C@@H]5CCCN5C(=O)[C@H](NC(=O)OC(C)(C)C)c5ccccc5)[nH]4)cc3)cc2c1)c1ccccc1` [Example 99, tert-butyl {(1R)-2-[(2S)-2-(5-{4-[5-({[(2S)-1-{(2R)-2-[(tert-butoxycarbonyl)amino]-2-phenylacetyl}pyrrolidin-2-yl]carbonyl}amino)-1H-indol-2-yl]phenyl}-1H-imidazol-2-yl)pyrrolidin-1-yl]-2-oxo-1-phenylethyl}carbamate] the EC50 was 0.038 nM.

Same assay, conditions: genotype 1b replicon cells, 24 to 72 hours incubation, luciferase activity
Compound `CN(C)[C@@H](C(=O)N1CCC[C@H]1C(=O)Nc1ccc2[nH]c(-c3ccc(NC(=O)[C@@H]4CCCN4C(=O)[C@H]4CCCO4)cc3)cc2c1)c1ccccc1` [Example 72] has an EC50 of 0.17 nM.
